± gives the expanded uncertainty stated by the source.
experiment: Molar enthalpy of transition or fusion; conditions: Crystal; DSC

Molar enthalpy of transition or fusion [kcal/mol] | SMILES
5.17 ± 0.155 | Oc1cccc2ccccc12 [1-naphthol]
5.04 ± 0.151 | Oc1ccc2ccccc2c1 [2-hydroxynaphthalene]
5.34 ± 0.16 | COc1cc(C=O)ccc1O [vanillin]

From the NIST ThermoML archive (doi:10.1016/j.jct.2012.01.001)
